Measurements: article PMC6792352, “Limited Chemical Structural Diversity Found to Modulate Thyroid Hormone Receptor in the Tox21 Chemical Library” (Environmental Health Perspectives, 2019)
Counter-ions that a name gives are not always drawn.

Experiment: in vitro
Conditions: rat, gh3-tre-luc cells, AC50 (uM) modified / 1000
With `COc1ccc(C2NC(=S)N3C(c4ccc(OC)c(OC)c4)NC(=S)N23)cc1OC` (stereo not shown) [3,7-Bis(3,4-dimethoxyphenyl)tetrahydro-1H,5H-[1,2,4]triazolo[1,2-a][1,2,4]triazole-1,5-dithione] the CC50 at 24 h was 0.208 µM. `CC(=O)[C@H]1CC[C@H]2[C@@H]3C[C@H](C)C4=CC(=O)CC[C@]4(C)[C@H]3[C@@H](O)C[C@]12C` [Medrysone] showed a CC50 at 24 h of over 20 µM. With `CC1(C)C(=O)C(C)(C)C1=O` [2,2,4,4-Tetramethylcyclobutane-1,3-dione] the CC50 at 24 h was over 90 µM. `CC(C)CCCCCOC(=O)CS` [Isooctyl 2-mercaptoacetate] showed a CC50 at 24 h of over 90 µM. `CCc1ccccc1O` [2-Ethylphenol] showed a CC50 at 24 h of over 90 µM. Molecule `N#[N+]c1ccc2c(S(=O)(=O)[O-])cccc2c1O` [1-Naphthalenesulfonic acid, 6-diazo-5,6-dihydro-5-oxo, sodium salt] has a CC50 at 24 h of over 90 µM. With `COc1cc(S(=O)(=O)Nc2ccccc2)c(OC)cc1N` [4-Amino-2,5-dimethoxy-N-phenylbenzenesulfonamide] the CC50 at 24 h was over 90 µM. Molecule `Cc1ccc(C)c(S(=O)(=O)O)c1` [2,5-Dimethylbenzenesulfonic acid] has a CC50 at 24 h of over 80 µM. Molecule `CC(O)COC(C)COC(C)CO` (stereo not shown) [Tripropylene glycol] has a CC50 at 24 h of over 90 µM. Work on `CCOC1O[C@H]([C@@H](COCc2ccccc2)OCc2ccccc2)[C@H](OCc2ccccc2)[C@H]1O` (stereo partly shown) [Tribenoside] yielded a CC50 at 24 h of over 20 µM. `O=CNc1ccccc1` [Formanilide] showed a CC50 at 24 h of over 90 µM. With `CC(C)c1cc2c(cc1S(=O)(=O)O)[C@@]1(C)CCC[C@@](C)(C(=O)O)[C@@H]1CC2` [Ecabet] the CC50 at 24 h was over 50 µM. For `CCC(=O)NS(=O)(=O)c1ccc(-c2c(-c3ccccc3)noc2C)cc1` [Parecoxib sodium], the CC50 at 24 h was over 50 µM. `CCNC(=O)[C@@H]1CCCN1C(=O)[C@H](CCCNC(=N)N)NC(=O)[C@H](CC(C)C)NC(=O)[C@@H](CC(C)C)NC(=O)[C@H](Cc1ccc(O)cc1)NC(=O)[C@H](CO)NC(=O)[C@H](Cc1c[nH]c2ccccc12)NC(=O)[C@H](Cc1c[nH]cn1)NC(=O)[C@@H]1CCC(=O)N1` [Leuprolide acetate salt] showed a CC50 at 24 h of over 50 µM. `CCN[C@H]1CN(CCCOC)S(=O)(=O)c2sc(S(N)(=O)=O)cc21` [Brinzolamide] gave a CC50 at 24 h of over 20 µM. With `CCCCCCCCCCCCCCCC(=O)OCC(COC(=O)CCCCCCCCCCCCCCC)OC(=O)CCCCCCCCCCCCCCC` [Tripalmitin] the CC50 at 24 h was over 50 µM. In the case of `Clc1cccc(C(Cl)(Cl)Cl)n1` [Nitrapyrin], the CC50 at 24 h is reported as over 90 µM. In the case of `C=C(C)C(=O)OCCOc1ccccc1` [Ethylene glycol phenyl ether methacrylate], the CC50 at 24 h is reported as over 90 µM. In the case of `Oc1ccc(C2(c3ccc(O)cc3)CC3CC2C2CCCC32)cc1` (stereo not shown) [4,4'-Octahydro-1H-4,7-methanoindene-5,5-diyldiphenol], the CC50 at 24 h is reported as 27.4 µM. For `COC(=O)C(c1ccccc1)C1CCCCN1` (stereo not shown) [Methylphenidate hydrochloride], the CC50 at 24 h was over 90 µM. Work on `CCCCCCC(C)Nc1ccc(Nc2ccccc2)cc1` (stereo not shown) [N-(1-Methylheptyl)-N'-phenyl-1,4-benzenediamine] yielded a CC50 at 24 h of 35.9 µM. In the case of `CCCc1c(OCCCCc2nnn[nH]2)ccc(C(C)=O)c1O` [Tomelukast], the CC50 at 24 h is reported as over 50 µM. With `CC(C)(S)[C@@H](N)C(=O)O` [D-Penicillamine] the CC50 at 24 h was over 50 µM. Molecule `O=C1CC[C@@H](C(=O)O)N1` [Pidolic acid] has a CC50 at 24 h of over 50 µM. `C1=Cc2ccccc2C1` [Indene] gave a CC50 at 24 h of over 90 µM. For `CC(COC(C)(C)C)OCCCO` (stereo not shown) [Di(propylene glycol) tert-butyl ether], the CC50 at 24 h was over 90 µM. For `COc1cc2c(Nc3ccc(Br)cc3F)ncnc2cc1OCC1CCN(C)CC1` [Vandetanib], the CC50 at 24 h was 3.74 µM. `COC(=O)CCCC(=O)O` [5-Methoxy-5-oxopentanoic acid] gave a CC50 at 24 h of over 90 µM. In the case of `O=C(CCCN1CCC(O)(c2cccc(C(F)(F)F)c2)CC1)c1ccc(F)cc1` [Trifluperidol hydrochloride], the CC50 at 24 h is reported as 24 µM. With `CCCCOC(=O)C(C)CC` (stereo not shown) [Butyl 2-methylbutyrate] the CC50 at 24 h was over 90 µM. Work on `CC(=O)N/N=C/c1ccc([N+](=O)[O-])o1` [Nihydrazone] yielded a CC50 at 24 h of 17.4 µM. `CCCCCCCCCCCCCCCCCC[n+]1ccn(C)c1` [1-Methyl-3-octadecylimidazolium hexafluorophosphate] showed a CC50 at 24 h of 9.82 µM. `CC1=C(O)C(=O)C(C)O1` (stereo not shown) [4-Hydroxy-2,5-dimethyl-3(2H)furanone] showed a CC50 at 24 h of over 90 µM. Work on `C[C@@H](O)C[C@@H](C)O` [2,4-Pentanediol] yielded a CC50 at 24 h of over 90 µM. Work on `CN[C@@H]1[C@@H](O)[C@@H](O[C@@H]2[C@H](O)[C@H](O[C@H]3OC(CN)=CC[C@H]3N)[C@@H](N)C[C@H]2N)OC[C@]1(C)O` [Pentisomicin] yielded a CC50 at 24 h of over 50 µM. With `CC(NC(C)(C)C)C(=O)c1cccc(Cl)c1` (stereo not shown) [Bupropion hydrochloride] the CC50 at 24 h was over 50 µM. Work on `OCc1cc(C(O)CNCCCCCCOCCCCc2ccccc2)ccc1O` (stereo not shown) [Salmeterol] yielded a CC50 at 24 h of 10.6 µM. `CCCCCCCCCCCCCCCCSCC(COC)COP(=O)([O-])OCC[N+](C)(C)C` (stereo not shown) [Ilmofosine] showed a CC50 at 24 h of 19.3 µM. In the case of `O=C(OCc1ccccc1)c1ccccc1O` [Benzyl salicylate], the CC50 at 24 h is reported as over 90 µM. Work on `COc1cc2nc(N3CCN(C(=O)c4ccco4)CC3)nc(N)c2cc1OC` [Prazosin] yielded a CC50 at 24 h of 8.15 µM. `CCCCN(CCCC)C(=O)N(CCCC)CCCC` [1,1,3,3-Tetrabutylurea] showed a CC50 at 24 h of over 90 µM. With `COC(=O)c1ccccc1Cl` [Methyl 2-chlorobenzoate] the CC50 at 24 h was over 90 µM. `O=C(O)c1ccccn1` [Picolinic acid] gave a CC50 at 24 h of over 50 µM. In the case of `C[C@H]1O[C@H](O[C@H]2[C@H](O)[C@@H](O)[C@@H](O)[C@H](O)[C@@H]2O)[C@@H](N)C[C@@H]1NC(=N)C(=O)O` [Kasugamycin hydrochloride], the CC50 at 24 h is reported as over 90 µM. With `C=CC(=O)OCC(C)C` [Isobutyl acrylate] the CC50 at 24 h was over 90 µM. In the case of `C[Si]1(C)N[Si](C)(C)N[Si](C)(C)N1` [2,2,4,4,6,6-Hexamethyl-1,3,5,2,4,6-triazatrisilinane], the CC50 at 24 h is reported as over 90 µM. For `CSc1nc(NC(C)C)nc(NC(C)C)n1` [Prometryn], the CC50 at 24 h was over 90 µM. With `NC(=S)c1c(Cl)cccc1Cl` [Chlorthiamid] the CC50 at 24 h was over 90 µM. Molecule `CCNC(=O)[C@@H]1CCCN1C(=O)[C@H](CCCN=C(N)N)NC(=O)[C@H](CC(C)C)NC(=O)[C@@H](Cc1c[nH]c2ccccc12)NC(=O)[C@H](Cc1ccc(O)cc1)NC(=O)[C@H](CO)NC(=O)[C@H](Cc1c[nH]c2ccccc12)NC(=O)[C@H](Cc1cnc[nH]1)NC(=O)[C@@H]1CCC(=O)N1` [Deslorelin acetate] has a CC50 at 24 h of 1.89 µM. `COc1cc(C(=O)NCc2ccc(OCCN(C)C)cc2)cc(OC)c1OC` [Trimethobenzamide hydrochloride] gave a CC50 at 24 h of over 20 µM.

Same assay, conditions: rat, gh3-tre-luc cells, AC50 (uM) modified / 1000, Tox21_110001=Tox21_111072; viability, 1 nM T3 present, 24 h
With `CCCCCl` [1-Chlorobutane] the CC50 at 24 h was over 50 µM.

Same assay, conditions: rat, gh3-tre-luc cells, AC50 (uM) modified / 1000, Tox21_110001=Tox21_111293; viability, 1 nM T3 present, 24 h
`Clc1ccc(Cl)cc1` [1,4-Dichlorobenzene] showed a CC50 at 24 h of over 50 µM.

Same assay, conditions: rat, gh3-tre-luc cells, AC50 (uM) modified / 1000, Tox21_110001=Tox21_111475; viability, 1 nM T3 present, 24 h
`CC(C)C[C@H](CN)CC(=O)O` [Pregabalin] showed a CC50 at 24 h of over 50 µM.

Same assay, conditions: rat, gh3-tre-luc cells, AC50 (uM) modified / 1000, Tox21_110001=Tox21_111708; viability, 1 nM T3 present, 24 h
Molecule `OC[C@@H](O)[C@H]1O[C@@H]2O[C@H](C(Cl)(Cl)Cl)O[C@@H]2[C@H]1O` [Chloralose] has a CC50 at 24 h of over 50 µM.

Same assay, conditions: rat, gh3-tre-luc cells, AC50 (uM) modified / 1000, Tox21_110001=Tox21_200297; viability, 1 nM T3 present, 24 h
Molecule `Oc1ccc(Cl)c(Cl)c1Cl` [2,3,4-Trichlorophenol] has a CC50 at 24 h of over 100 µM.

Same assay, conditions: rat, gh3-tre-luc cells, AC50 (uM) modified / 1000, Tox21_110001=Tox21_200399; viability, 1 nM T3 present, 24 h
`Clc1ccc(Cl)cc1` [1,4-Dichlorobenzene] gave a CC50 at 24 h of over 90 µM.

Same assay, conditions: rat, gh3-tre-luc cells, AC50 (uM) modified / 1000, Tox21_110001=Tox21_200865; viability, 1 nM T3 present, 24 h
With `CCCCCl` [1-Chlorobutane] the CC50 at 24 h was over 90 µM.

Same assay, conditions: rat, gh3-tre-luc cells, AC50 (uM) modified / 1000, Tox21_110001=Tox21_201447; viability, 1 nM T3 present, 24 h
With `OC[C@@H](O)[C@H]1O[C@@H]2O[C@H](C(Cl)(Cl)Cl)O[C@@H]2[C@H]1O` [Chloralose] the CC50 at 24 h was over 90 µM.

Same assay, conditions: rat, gh3-tre-luc cells, AC50 (uM) modified / 1000, Tox21_110001=Tox21_201457; viability, 1 nM T3 present, 24 h
`O=NN(c1ccccc1)c1ccccc1` [N-Nitrosodiphenylamine] gave a CC50 at 24 h of over 90 µM.

Same assay, conditions: rat, gh3-tre-luc cells, AC50 (uM) modified / 1000, Tox21_110001=Tox21_202017; viability, 1 nM T3 present, 24 h
Work on `CCOC(=O)CC(SP(=O)(OC)OC)C(=O)OCC` (stereo not shown) [Malaoxon] yielded a CC50 at 24 h of over 90 µM.

Same assay, conditions: rat, gh3-tre-luc cells, AC50 (uM) modified / 1000, Tox21_110001=Tox21_302242; viability, 1 nM T3 present, 24 h
For `CCCCCCCCP(=O)(O)O` [Octylphosphonic acid], the CC50 at 24 h was over 90 µM.
